In US7160898B2, “Pharmacological treatment for sleep apnea” (Board of Trustees of The University of Illinois, priority 2002, dated 2007):
Entries after “also recorded” stand apart in the source; their conditions may differ.

What was measured:
[1] = system: normalized minute ventilation; experiment: Plethysmographic minute ventilation after GR38032F (Example 2); assay type: in vivo, rat (Sprague-Dawley); conditions: 1 mg/kg i.p., 6 recording hours, vs control; hydrochloride, dihydrate
Experimental: Physiological parameters (see below) from each animal were recorded on 2 occasions in random order, with recordings for an individual animal separated for at least 3 days. Fifteen minutes prior to each recording each animal received a systemic injection (1 ml/kg intraperitoneal bolus injection) of either saline (control) or 1 mg/kg of ondansetron (GR38032F; 1,2,3,9-tetrahydro-9-methyl-3-[(2-methylimidazol-1-yl)methyl]carbazole-4-one, hydrochloride, dihydrate; Glaxo Wellcome, Inc., Research Triangle Park, N.C.). Polygraphic recordings were made from hours 10:00–16:00.
Respiration was recorded by placing each animal, unrestrained, inside a single chamber plethysmograph (PLYUNIR/U; Buxco Electronics, Sharon, Conn.; dimension 6 in.×10 in.×6 in.) ventilated with a bias flow of fresh room air at a rate of 2 L/min. […]
An accepted physiological animal model [rat; Monti, et al., Pharamcol. […] More specifically, sleep apneas, defined as cessation of respiratory effort for at least 2.5 seconds, were scored for each recording session and were associated with the stage of sleep in which they occurred: NREM or REM sleep. […] The events detected represent central apneas because decreased ventilation associated with obstructed or occluded airways would generate an increased plethysmographic signal, rather than a pause. […]

[2] = system: spontaneous sleep-related central apneas; experiment: Induction and suppression of sleep apneas by serotonin and GR38032F (Example 3); assay type: in vivo, rat (Sprague-Dawley)
Experimental: Ten adult male Sprague-Dawley rats (Sasco-King, Wilmington, Mass.; 300 g) were maintained on a 12-h light (08:00–20:00 hour)/12-hour dark (20:00–08:00) cycle for one week, housed in individual cages, and given ad libitum access to food and water. Following the one week of acclimatization, animals were prepared for physiological testing via the surgical procedures (i.e., implantation of cortical electrodes for EEG recording and neck muscle electrodes for EMG recording, implantation of a radiotelemetry transmitter for BP and HP monitoring) as set forth above in Example 1. After completion of the surgical procedures, animals were allowed a one week recovery period prior to use in the present study. Each animal was recorded on four occasions, with recordings for an individual animal separated by at least three days. Fifteen minutes prior to each recording, each animal received (via intraperitoneal injection), in random order, one of the following: (a) saline solution (control); (b) 0.79 mg/kg serotonin; (c) 0.1 mg/kg GR38032F plus 0.79 mg/kg serotonin; or (d) 0.1 mg/kg GR38032F. For the GR38032F+serotonin test group, 0.1 mg/kg GR38032F was administered at time 09:30 followed by 0.79 mg/kg serotonin at time 09:45. Polygraphic recordings were made from 10:00–16:00. Respiration BP, EEG, and EMG data were determined and recorded via the experimental procedure as specifically set forth above in Example 2. As in Example 2, sleep apneas, defined as cessation of respiratory effort for at least 2.5 s, were scored for each recording session and were associated with the stage in which they occurred: NREM or REM sleep. The duration requirement of 2.5 s represents at least two “missed” breaths, which is analogous to a 10-s apnea duration requirement in humans. The effects of sleep stage (NREM vs REM) and injection (control vs. administration of either serotonin alone, GR38032F+serotonin, or GR38032F alone) on apnea indexes, respiratory pattern, BP, and HP were tested using analysis of variance (ANOVA) with repeated measures. Multiple comparisons were controlled using Fisher's protected least-significance difference (PLSD). One-way ANOVA was also performed by nonparametric (Kruskal-Wallis) analysis. Conclusions using parametric and nonparametric ANOVA were identical in all cases.

[3] = system: 5-hydroxytryptamine receptors; conditions: anesthetized animals; cited from earlier work

Compound: Cc1nccn1CC1CCc2c(c3ccccc3n2C)C1=O.Cl.O.O (centres unmarked) [GR38032F, 1,2,3,9-tetrahydro-9-methyl-3-[(2-methylimidazol-1-yl)methyl]carbazole-4-one, hydrochloride, dihydrate]
- normalized minute ventilation during W, NREM and REM sleep [1]: significantly larger; also recorded: significant stimulation of ventilation during all behavioral states
- antagonism of the serotonin-induced increase of REM sleep apneas ([2]; 0.1 mg/kg GR38032F i.p. 15 min before 0.79 mg/kg serotonin, hydrochloride, dihydrate): abolished; also recorded: fully blocked
- effect on REM sleep spontaneous apneas ([2]; GR38032F alone 0.1 mg/kg i.p.): had no effect on REM sleep spontaneous apneas
- spontaneous apnea index during NREM sleep ([2]; i.p., serotonin 0.79 mg/kg, GR38032F 0.1 mg/kg, 6 hour recording): not affected by any drug treatment
- antagonism of agonist-induced transient apnea [3]: significantly antagonized
